What was measured:
hTAS2R10 = molecular target: T1, hTAS2R10 (Homo sapiens, UniProt Q9NYW0); experiment: calcium imaging (FLIPR), activation of hTAS2R-transfected HEK293T-Gα16gust44 cells; type: cell-based; details: for calcium response of hTAS2R10-transfected cells: 100 μM test substance, bath application
T1 construct: expressed in transfected cells; host or cells: HEK293T cells stably expressing chimeric Gα16gust44, transient transfection
T1 sequence (Q9NYW0 1-307): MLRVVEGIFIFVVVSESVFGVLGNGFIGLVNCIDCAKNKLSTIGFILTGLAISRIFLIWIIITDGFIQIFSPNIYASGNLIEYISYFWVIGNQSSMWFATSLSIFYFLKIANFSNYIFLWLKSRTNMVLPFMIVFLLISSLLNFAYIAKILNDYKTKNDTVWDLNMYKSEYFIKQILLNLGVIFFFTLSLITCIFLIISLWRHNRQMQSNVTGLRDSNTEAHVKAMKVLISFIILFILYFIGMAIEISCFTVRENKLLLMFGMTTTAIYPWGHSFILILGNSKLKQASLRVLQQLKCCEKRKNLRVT
Source text: (§1) Human TAS2R cDNAs were cloned into pcDNA5/FRT (Invitrogen, San Diego, Calif.). For adequate plasma membrane targeting, receptor cDNA was fused to the aminoterminal sequence of the rat somatostatin type 3 receptor at the aminoterminus of the recombinant protein (Bufe, B., T. Hofmann, et al. (2002) Nat Genet. 32(3): 397-401). For immunological detection, the Herpes simplex Glycoprotein D epitope was supplemented at the carboxyterminus of the recombinant protein (Bufe et al., supra). Receptor constructs were transiently transfected into HEK293T cells stably expressing the chimeric G protein subunit Gα16gust44 (Ueda, T., S. Ugawa, et al. (2003) J Neurosci 23(19): 7376-80) using Lipofectamine 2000 (Invitrogen, San Diego, Calif.) in 96-well plates.
(§2) Calcium Imaging experiments were performed 24 h after transfection using a Fluorometric Imaging Plate Reader (FLIPR, Molecular Devices, Munich, Germany) as previously described (Bufe et al., supra). Taste active compounds were ordered from Sigma (Sigma-Aldrich, Taufkirchen, Germany). Absinthin, 3β hydroxy dihydro costunolide and 3β hydroxy pelenolide were kindly provided by Giovanni Appendino (Novara, Italy). Test substances were directly dissolved in C1 buffer (130 mM NaCl, 10 mM Na-Hepes, 10 mM Glucose, 5 mM KCl, 2 mM CaCl2, pH 7.4) or in DMSO, respectively. DMSO stocks were further diluted in C1 buffer not exceeding a final DMSO concentration of 1% on the cells. For the investigation of antagonistic effects, test substances were premixed. Agonists were applied at concentrations corresponding to EC90, except where indicated otherwise (Table 2). Data were collected from 3 independent experiments performed in quadruplicates and processed with SigmaPlot (SPSS, Chicago, Ill.). Fluorescence signals after application of test substances were corrected for and normalized to background fluorescence (ΔF/F═(F−F0)/F0), and baseline noise was subtracted. Calculation of dose-response curves was done by nonlinear regression using the function f(y)=((a−d)/(1+(x/EC50)^nH)+d).
(§3) In a first series of experiments we tested the two sesquiterpene lactones 3β hydroxy dihydro costunolide (formula (I) in FIG. 1) and 3β hydroxy pelenolide (formula (II) in FIG. 1) for their ability to activate hTAS2 receptor-expressing HEK293T cells.
(§4) Signal amplitudes were comparatively small (FIG. 2C).

hTAS2R14 = molecular target: T2, hTAS2R14 (Homo sapiens, UniProt Q9NYV8); experiment: as above; type: cell-based; details: 100 μM test substance, bath application
T2 construct: expressed in transfected cells; host or cells: HEK293T cells stably expressing chimeric Gα16gust44, transient transfection
T2 sequence (Q9NYV8 1-317): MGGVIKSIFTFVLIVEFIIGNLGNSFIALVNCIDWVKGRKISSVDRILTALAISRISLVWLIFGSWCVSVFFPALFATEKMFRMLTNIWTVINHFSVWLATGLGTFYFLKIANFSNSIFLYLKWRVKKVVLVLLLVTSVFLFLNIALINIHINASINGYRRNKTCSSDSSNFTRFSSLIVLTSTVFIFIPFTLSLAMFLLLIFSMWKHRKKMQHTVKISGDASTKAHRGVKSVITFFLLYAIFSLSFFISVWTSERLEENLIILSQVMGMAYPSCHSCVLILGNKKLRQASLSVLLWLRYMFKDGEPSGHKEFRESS
Source text: as §1, §2, §3, §4

hTAS2R40 = molecular target: T3, hTAS2R40 (Homo sapiens, UniProt P59535); experiment: calcium imaging (FLIPR), effect on agonist-dependent hTAS2R activation; type: cell-based; details: 100 μM test substance; agonist cohumulone 0.3 μM (EC90); agonist alone = 100%
T3 construct: expressed in transfected cells; host or cells: HEK293T cells stably expressing chimeric Gα16gust44, transient transfection
T3 sequence (P59535 whole entry): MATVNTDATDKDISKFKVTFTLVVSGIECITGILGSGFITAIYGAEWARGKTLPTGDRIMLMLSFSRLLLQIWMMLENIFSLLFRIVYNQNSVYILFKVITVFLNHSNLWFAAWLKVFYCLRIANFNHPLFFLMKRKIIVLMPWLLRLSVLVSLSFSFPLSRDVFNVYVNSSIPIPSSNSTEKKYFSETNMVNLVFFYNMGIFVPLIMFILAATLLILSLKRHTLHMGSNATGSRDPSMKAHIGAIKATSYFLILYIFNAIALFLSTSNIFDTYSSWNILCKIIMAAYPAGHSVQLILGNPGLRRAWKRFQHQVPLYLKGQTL
Source text: as §1, §2
(§5) To test 3β hydroxy dihydro costunolide and 3β hydroxy pelenolide for antagonistic or enhancing effects on hTAS2R activation, transfected cells were stimulated with cognate agonist bitter substances at EC90 concentrations (Table 2) without 3β hydroxy dihydro costunolide and 3β hydroxy pelenolide. The cellular responses after application of the agonist alone were set to 100%, responses obtained after coapplication of agonists and 100 μM 3β hydroxy dihydro costunolide or 100 μM 3β hydroxy pelenolide are shown relative to this value (FIG. 4).

hTAS2R43 = molecular target: T4, hTAS2R43 (Homo sapiens, UniProt P59537, H212R/W35S); experiment: as above; type: cell-based; details: 100 μM test substance; agonist aristolochic acids 0.3 μM (EC90); agonist alone = 100%
T4 construct: expressed in transfected cells; host or cells: HEK293T cells stably expressing chimeric Gα16gust44, transient transfection
T4 sequence (P59537 1-309 W35S/H212R): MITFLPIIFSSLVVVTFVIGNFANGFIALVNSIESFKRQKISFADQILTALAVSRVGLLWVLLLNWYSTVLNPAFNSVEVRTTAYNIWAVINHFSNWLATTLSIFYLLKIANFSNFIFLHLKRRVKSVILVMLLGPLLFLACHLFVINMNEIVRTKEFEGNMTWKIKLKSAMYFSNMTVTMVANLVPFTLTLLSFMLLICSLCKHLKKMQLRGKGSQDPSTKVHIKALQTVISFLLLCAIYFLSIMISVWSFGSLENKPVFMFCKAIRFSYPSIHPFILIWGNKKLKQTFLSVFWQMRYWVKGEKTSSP
Source text: as §1, §2, §5

hTAS2R47 = molecular target: T5, hTAS2R47 (Homo sapiens, UniProt P59541); experiment: as above; type: cell-based; details: 100 μM test substance; agonist brucine 100 μM (EC90); agonist alone = 100%
T5 construct: expressed in transfected cells; host or cells: HEK293T cells stably expressing chimeric Gα16gust44, transient transfection
T5 sequence (P59541 1-319): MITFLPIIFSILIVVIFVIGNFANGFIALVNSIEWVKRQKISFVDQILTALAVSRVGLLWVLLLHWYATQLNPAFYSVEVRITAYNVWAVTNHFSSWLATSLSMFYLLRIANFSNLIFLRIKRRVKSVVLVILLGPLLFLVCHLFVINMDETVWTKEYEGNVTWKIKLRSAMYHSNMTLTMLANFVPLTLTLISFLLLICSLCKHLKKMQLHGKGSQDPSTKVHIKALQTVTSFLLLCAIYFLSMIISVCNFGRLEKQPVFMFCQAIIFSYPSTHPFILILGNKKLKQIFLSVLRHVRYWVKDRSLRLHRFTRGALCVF
Source text: as §1, §2, §5

other hTAS2 receptors = experiment: as above; type: cell-based, human; details: 100 μM test substance; cognate agonists of Table 2
Source text: as §1
Calcium Imaging experiments were performed 24 h after transfection using a Fluorometric Imaging Plate Reader (FLIPR, Molecular Devices, Munich, Germany) as previously described (Bufe et al., supra). Taste active compounds were ordered from Sigma (Sigma-Aldrich, Taufkirchen, Germany). Absinthin, 3β hydroxy dihydro costunolide and 3β hydroxy pelenolide were kindly provided by Giovanni Appendino (Novara, Italy). […] Fluorescence signals after application of test substances were corrected for and normalized to background fluorescence (ΔF/F═(F−F0)/F0), and baseline noise was subtracted. […]

Structure (SMILES) | calcium response of hTAS2R10-transfected cells (hTAS2R10) | EC50 (hTAS2R10; concentration-response, intracellular calcium) [µM] | calcium response of hTAS2R14-transfected cells (hTAS2R14) | agonist-dependent response of hTAS2R40-expressing cells on coapplication (hTAS2R40) | agonist-dependent response of hTAS2R43-expressing cells on coapplication (hTAS2R43) | agonist-dependent response of hTAS2R47-expressing cells on coapplication (hTAS2R47) | agonist activation of cells expressing any of the other hTAS2Rs on coapplication (other hTAS2 receptors)
C/C1=C\C[C@H](O)/C(C)=C/[C@H]2OC(=O)[C@@H](C)C2CC1 (stereo partly drawn) [3β hydroxy dihydro costunolide] | responded | 25.2 ± 3.6 | responded | only moderately reduced | only moderately reduced | complete block | did not alter
C/C1=C\C[C@H](O)[C@@H](C)C[C@H]2OC(=O)[C@@H](C)[C@@H]2CC1 [3β hydroxy pelenolide] | displayed calcium signals | – | displayed calcium signals | moderately attenuating effect | completely inhibited | completely inhibited | not affected

— patent publication US8673578B2, “Methods of identifying antagonists of the hTAS2R46 bitter taste receptor” (Deutsches Institut für Ernahrungsforschung Potsdam-Rehbrücke, priority 2009, dated 2014)
